Results published in PubChem BioAssay AID1259407 (Chemical Carcinogenesis Research Information System (CCRIS), 2018).
Calls of active or inactive are those of the source. The rule behind the calls is not given here.

Tested on: CCRIS mutagenicity, Ames/micronucleus/aberration tests
Test: CCRIS mutagenicity studies
[1] = Test System: AMES SALMONELLA TYPHIMURIUM, Strain/Indicator: TA98, Metabolic Activation: NONE, Method: PREINCUBATION
[2] = Test System: AMES SALMONELLA TYPHIMURIUM, Strain/Indicator: TA100, Metabolic Activation: NONE, Method: PREINCUBATION
[3] = Test System: Ames Salmonella typhimurium, Strain/Indicator: TA98, Metabolic Activation: None, Method: Preincubation
[4] = Test System: Ames Salmonella typhimurium, Strain/Indicator: TA100, Metabolic Activation: None, Method: Preincubation
[5] = Test System: AMES SALMONELLA TYPHIMURIUM, Strain/Indicator: TA98, Metabolic Activation: HAMSTER, LIVER, S-9, AROCLOR 1254 (10%), Method: PREINCUBATION
[6] = Test System: AMES SALMONELLA TYPHIMURIUM, Strain/Indicator: TA98, Metabolic Activation: NONE, Method: STANDARD PLATE
[7] = Test System: AMES SALMONELLA TYPHIMURIUM, Strain/Indicator: TA98, Metabolic Activation: RAT, LIVER, S-9, AROCLOR 1254 (10%), Method: PREINCUBATION
[8] = Test System: AMES SALMONELLA TYPHIMURIUM, Strain/Indicator: TA98, Metabolic Activation: RAT, LIVER, S-9, AROCLOR 1254, Method: STANDARD PLATE
[9] = Test System: AMES SALMONELLA TYPHIMURIUM, Strain/Indicator: TA100, Metabolic Activation: HAMSTER, LIVER, S-9, AROCLOR 1254 (10%), Method: PREINCUBATION
[10] = Test System: AMES SALMONELLA TYPHIMURIUM, Strain/Indicator: TA100, Metabolic Activation: NONE, Method: STANDARD PLATE
[11] = Test System: AMES SALMONELLA TYPHIMURIUM, Strain/Indicator: TA100, Metabolic Activation: RAT, LIVER, S-9, AROCLOR 1254 (10%), Method: PREINCUBATION
[12] = Test System: AMES SALMONELLA TYPHIMURIUM, Strain/Indicator: TA100, Metabolic Activation: RAT, LIVER, S-9, AROCLOR 1254, Method: STANDARD PLATE
[13] = Test System: AMES SALMONELLA TYPHIMURIUM, Strain/Indicator: TA1535, Metabolic Activation: HAMSTER, LIVER, S-9, AROCLOR 1254 (10%), Method: PREINCUBATION
[14] = Test System: AMES SALMONELLA TYPHIMURIUM, Strain/Indicator: TA1535, Metabolic Activation: NONE, Method: PREINCUBATION
[15] = Test System: AMES SALMONELLA TYPHIMURIUM, Strain/Indicator: TA1535, Metabolic Activation: RAT, LIVER, S-9, AROCLOR 1254 (10%), Method: PREINCUBATION
[16] = Test System: AMES SALMONELLA TYPHIMURIUM, Strain/Indicator: TA1537, Metabolic Activation: HAMSTER, LIVER, S-9, AROCLOR 1254 (10%), Method: PREINCUBATION
[17] = Test System: AMES SALMONELLA TYPHIMURIUM, Strain/Indicator: TA1537, Metabolic Activation: NONE, Method: PREINCUBATION
[18] = Test System: AMES SALMONELLA TYPHIMURIUM, Strain/Indicator: TA1537, Metabolic Activation: RAT, LIVER, S-9, AROCLOR 1254 (10%), Method: PREINCUBATION

Measured: mutagenic call

NNc1ccc([N+](=O)[O-])cc1
active: [1] active; positive | Test System: AMES SALMONELLA TYPHIMURIUM, Strain/Indicator: TA98, Metabolic Activation: RAT, LIVER, S-9, KANECHLOR 500, Method: PREINCUBATION active; positive | [2] active; positive | Test System: AMES SALMONELLA TYPHIMURIUM, Strain/Indicator: TA100, Metabolic Activation: RAT, LIVER, S-9, KANECHLOR 500, Method: PREINCUBATION active; positive

C=CC1=C(C)/C(=C/c2[nH]c(Cc3[nH]c(/C=C4\NC(=O)C(C)=C4C=C)c(C)c3CCC(=O)O)c(CCC(=O)O)c2C)NC1=O
inactive: Test System: Ames Salmonella typhimurium, Strain/Indicator: TA98, Metabolic Activation: Liver, S-9, Method: Preincubation inactive; negative | [3] inactive; negative | Test System: Ames Salmonella typhimurium, Strain/Indicator: TA100, Metabolic Activation: Liver, S-9, Method: Preincubation inactive; negative | [4] inactive; negative | Test System: Ames Salmonella typhimurium, Strain/Indicator: TA102, Metabolic Activation: Liver, S-9, Method: Preincubation inactive; negative | Test System: Ames Salmonella typhimurium, Strain/Indicator: TA102, Metabolic Activation: None, Method: Preincubation inactive; negative

ClC1=C(Cl)[C@]2(Cl)[C@@H]3[C@H]4C[C@H]([C@@H]5O[C@H]45)[C@@H]3[C@@]1(Cl)C2(Cl)Cl
inactive: Test System: AMES SALMONELLA TYPHIMURIUM, Strain/Indicator: TA97, Metabolic Activation: NONE, Method: STANDARD PLATE inactive; negative | Test System: AMES SALMONELLA TYPHIMURIUM, Strain/Indicator: TA97, Metabolic Activation: RAT, LIVER, S-9, AROCLOR 1254, Method: STANDARD PLATE inactive; negative | [5] inactive; negative | [1] inactive; negative | [6] inactive; negative | [7] inactive; negative | [8] inactive; negative | [9] inactive; negative | [2] inactive; negative | [10] inactive; negative | [11] inactive; negative | [12] inactive; negative | Test System: AMES SALMONELLA TYPHIMURIUM, Strain/Indicator: TA102, Metabolic Activation: NONE, Method: STANDARD PLATE inactive; negative | Test System: AMES SALMONELLA TYPHIMURIUM, Strain/Indicator: TA102, Metabolic Activation: RAT, LIVER, S-9, AROCLOR 1254, Method: STANDARD PLATE inactive; negative | [13] inactive; negative | [14] inactive; negative | [15] inactive; negative | [16] inactive; negative | [17] inactive; negative | [18] inactive; negative | Test System: MOUSE LYMPHOMA, Strain/Indicator: L5178Y (TK+/TK-), Metabolic Activation: NONE, Method: SUSPENSION/PLATE inactive; negative | Test System: MOUSE LYMPHOMA, Strain/Indicator: L5178Y (TK+/TK-), Metabolic Activation: RAT, LIVER, S-9, AROCLOR 1254, Method: SUSPENSION/PLATE inactive; negative

C/C=C(\C)CCl
active: Test System: AMES SALMONELLA TYPHIMURIUM, Strain/Indicator: TA100, Metabolic Activation: NONE, Method: LIQUID SUSPENSION active; positive | Test System: AMES SALMONELLA TYPHIMURIUM, Strain/Indicator: TA100, Metabolic Activation: RAT, LIVER, S-9, Method: LIQUID SUSPENSION active; positive

C[n+]1ccc(-c2ccccc2)cc1
inactive: [2] inactive; negative | Test System: AMES SALMONELLA TYPHIMURIUM, Strain/Indicator: TA102, Metabolic Activation: NONE, Method: PREINCUBATION inactive; negative

OCc1c2ccccc2cc2c1ccc1ccccc12
active: [6] active; positive | Test System: AMES SALMONELLA TYPHIMURIUM, Strain/Indicator: TA98, Metabolic Activation: RAT, LIVER, S-9, 3'-PHOSPHOADENOSINE 5'-PHOSPHOSULFATE GENERATING SYSTEM, Method: PREINCUBATION active; positive | Test System: AMES SALMONELLA TYPHIMURIUM, Strain/Indicator: TA98, Metabolic Activation: RAT, LIVER, S-9, NADPH GENERATING SYSTEM, Method: PREINCUBATION active; positive | Test System: AMES SALMONELLA TYPHIMURIUM, Strain/Indicator: TA98, Metabolic Activation: RAT, LIVER, S-105, 3'-PHOSPHOADENOSINE 5'-PHOSPHOSULFATE GENERATING SYSTEM, Method: PREINCUBATION active; positive

CNc1ccc2nc3ccc(=[N+](C)C)cc-3sc2c1
active: [3] active; positive | Test System: Ames Salmonella typhimurium, Strain/Indicator: TA98, Metabolic Activation: Rat, Liver, S-9, Aroclor 1254 (10%), Method: Preincubation active; positive | [4] active; positive | Test System: Ames Salmonella typhimurium, Strain/Indicator: TA100, Metabolic Activation: Rat, Liver, S-9, Aroclor 1254 (10%), Method: Preincubation active; positive | Test System: E. coli, Strain/Indicator: WPM uvrA/pKM101, Metabolic Activation: None, Method: Preincubation active; positive | Test System: E. coli, Strain/Indicator: WPM uvrA/pKM101, Metabolic Activation: Rat, Liver, S-9, Aroclor 1254 (10%), Method: Preincubation active; positive

Nc1cc(Cl)cc(Cl)c1
active: End Point: In vitro chromosomal aberrations, Test System: Chinese hamster lung (CHL/IU) cells, Metabolic Activation: Rat, Liver, S9, Phenobarbital and 5,6-benzoflavone active; positive (structural changes and ploidy)
inactive: [6] inactive; negative | [8] inactive; negative | [10] inactive; negative | [12] inactive; negative | Test System: UDS RODENT HEPATOCYTES, Strain/Indicator: THY INCORP (NON-S-PHASE), Metabolic Activation: NONE, Method: AUTORADIOGRAPHY inactive; negative

CCNCC
inactive: [5] inactive; negative | [1] inactive; negative | [7] inactive; negative | [9] inactive; negative | [2] inactive; negative | [11] inactive; negative | [13] inactive; negative | [14] inactive; negative | [15] inactive; negative | [16] inactive; negative | [17] inactive; negative | [18] inactive; negative
